Assay results published in patent publication US10813981B2, “Saposin B binds the lipofuscin bisretinoid A2E and prevents its enzymatic and photo degradation” (Syracuse University, priority 2017, dated 2020).

Assays:
HRP = target: T1, HRP (Armoracia rusticana, UniProt P00433); assay: Formation of verdoheme (P-670) from HRP Compound III, absorbance at 670 nm; format: biochemical; settings: 12 μM A2E, alone or pre-complexed with SapB; 10 μM HRP, 100 μM H2O2
T1 sequence (P00433 31-338): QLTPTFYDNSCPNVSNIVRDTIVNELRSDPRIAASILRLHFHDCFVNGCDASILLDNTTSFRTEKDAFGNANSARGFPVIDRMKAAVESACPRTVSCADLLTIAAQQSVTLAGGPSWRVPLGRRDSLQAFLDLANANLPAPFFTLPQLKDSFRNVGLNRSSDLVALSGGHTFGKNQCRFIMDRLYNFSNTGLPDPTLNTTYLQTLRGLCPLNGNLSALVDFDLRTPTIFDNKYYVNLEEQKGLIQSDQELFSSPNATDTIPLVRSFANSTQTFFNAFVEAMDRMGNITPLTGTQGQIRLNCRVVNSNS
Method: Here, and in light of the kinetic results of FIG. 4, we followed the absorbance change at 670 nm to test the hypothesis of whether A2E may be a suitable substrate for the HRP/H2O2 system.
The experiments were then repeated in the presence of A2E and SapB to examine their effect on P-670 formation.
Conventional ultraviolet visible spectroscopy was performed on a Varian Cary 50 Bio spectrophotometer from Agilent Technologies. The stock solutions of various reagents were prepared as follow: HRP in DI water, A2E in DMSO, SapB in 50 mM phosphate buffer, pH 5.5, CoQ10 in THF (tetrahydrofurane) and 3% H2O2 solution diluted in DI water from an initial stock at 30%. The 340 nm kinetic experiments were monitored every 5 minutes for a total of 400 min following the sequential addition of all reagents as indicated in FIG. 4. The HRP solution of FIG. 5 was prepared in 20 mM phosphate buffer, 1% tween, pH 5.5, 25° C. All concentrations given in the figure caption are final concentrations following mixing of the reagents. The spectrophotometric data were further analyzed with OriginLab software version 8.

[1] = Blue-light photo-degradation of A2E; format: physicochemical; settings: bound to SapB (2 sapB:1 A2E) versus free; 30 min, pH 5.5
Excerpt: We screened A2E photostability to blue light, whether in its free form or complexed to SapB (2 sapB:1 A2E) (see supplementary materials for details) with and without 1% DMSO (a known facilitator of blue induced photobleaching). […] The fact that SapB might play a role in mitigating photo-bleaching and providing a source of subsequent fluorescence is an interesting possibility, particularly in light of recent studies by Yamamoto et al. showing that SapB could regulate CoQ10 movement/levels within HepG2 cells.
In order to further examine the protective effects of sapB towards A2E in terms of photooxidation, additional ultraviolet spectroscopy was performed on a Varian Cary 50B Spectrophotomer. The stock solutions were prepared as follows: SapB in 50 mM phosphate buffer, pH 5.5 and A2E in 100% methanol or 100% DMSO. The samples were exposed to blue light in five-minute increments and monitored after each exposure for a total of 30 min. The data was further analyzed with OriginLab software version 8. The final product was examined via mass spectroscopy to identify products as a result of blue light exposure. Evidence for photooxidized species are clearly indicated.

arylsulfatase A (ASA) = target: T2, arylsulfatase A (ASA) (Homo sapiens, UniProt P15289); settings: at a set time-point; cited from earlier work
T2 sequence (P15289 19-507): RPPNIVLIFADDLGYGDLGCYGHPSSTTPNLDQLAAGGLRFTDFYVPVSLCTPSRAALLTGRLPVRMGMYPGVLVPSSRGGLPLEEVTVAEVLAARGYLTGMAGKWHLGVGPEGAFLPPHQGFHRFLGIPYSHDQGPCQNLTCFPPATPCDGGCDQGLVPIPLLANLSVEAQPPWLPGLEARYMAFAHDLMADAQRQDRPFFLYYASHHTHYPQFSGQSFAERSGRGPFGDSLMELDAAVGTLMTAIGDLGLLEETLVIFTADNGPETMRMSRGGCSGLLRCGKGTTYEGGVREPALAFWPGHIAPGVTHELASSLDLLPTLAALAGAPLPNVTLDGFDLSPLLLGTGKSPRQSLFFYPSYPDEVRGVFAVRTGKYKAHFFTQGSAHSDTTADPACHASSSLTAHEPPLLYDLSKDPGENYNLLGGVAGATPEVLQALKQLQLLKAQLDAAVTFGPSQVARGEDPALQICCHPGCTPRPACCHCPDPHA

CC(C=CC1=C(C)CCCC1(C)C)=CC=CC(C)=Cc1cc(C=CC=C(C)C=CC2=C(C)CCCC2(C)C)cc[n+]1CCO [A2E, N-retinylidene-N-retinylethanolamine]
amount of verdoheme (P-670) formation (HRP): significant reduction | A2E degradation over time under blue light (decline in slopes) [1]: significantly reduced | interference with ASA specific activity (arylsulfatase A (ASA)): does not interfere
